Patent US10723741B1, “DNA polymerase IIIC inhibitors and use thereof” (Acurx Pharmaceuticals, LLC, priority 2018, dated 2020)
≈ marks a conversion by molar mass, not a printed value. Structures can show the parent of a compound that is named as a salt. Where two headings read alike, the source gives them in different places. Each block holds one molecule with its values, some of them ahead of it.

Legend:
Assay type in all cases: cell-based
[1] = system: Staphylococcus aureus NRS384 (MRSA); test: Broth microdilution MIC, S. aureus NRS384 (MRSA); details: Staphylococcus aureus, read-out: MIC NRS 384 (MRSA)
How it was run: (§1)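 Broth microdilution in strain-specific test medium with ~5.0×10^5 cfu/ml inoculum, 1% DMSO and two-fold compound dilutions from 64 to 0.0625 μg/ml. Plates were held 20 hours at 37° C in ambient air. S. pneumoniae colonies were grown beforehand on blood agar in 5% CO2.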

[2] = system: Staphylococcus aureus ATCC 29213 (MSSA); test: Broth microdilution MIC, S. aureus ATCC 29213 (MSSA); details: read-out: MIC S. aureus ATCC 29213 (MSSA)
How it was run: as §1

[3] = system: Enterococcus faecalis ATCC 29212; test: Broth microdilution MIC, E. faecalis ATCC 29212; details: read-out: MIC E. faecalis ATCC 29212
How it was run: as §1

[4] = system: Enterococcus faecium ATCC 700221 (VRE); test: Broth microdilution MIC, E. faecium ATCC 700221 (VRE); details: Enterococcus faecium, read-out: MIC E. faecium ATCC 700221 (VRE)
How it was run: as §1

[5] = system: Bacillus subtilis ATCC 6633; test: Broth microdilution MIC, B. subtilis ATCC 6633; details: read-out: MIC B. subtilis ATCC 6633
How it was run: as §1

[6] = system: Escherichia coli ATCC 25922; test: Broth microdilution MIC, E. coli ATCC 25922 (MHIIB w & w/o 4 mM EDTA); details: for MIC: Escherichia coli, read-out: MIC E. coli ATCC 25922; for MIC E. coli ATCC 25922 + 4 mM EDTA: with 4 mM EDTA
How it was run: as §1

[7] = system: Streptococcus pneumoniae ATCC 49619; test: Broth microdilution MIC, S. pneumoniae ATCC 49619; details: read-out: MIC S. pneumoniae ATCC 49619
How it was run: as §1

[8] = broth microdilution, 37° C., 20 hours
[9] = ATCC29212, broth microdilution, 37° C., 20 hours
[10] = ATCC6633, broth microdilution, 37° C., 20 hours
[11] = ATCC25922, without EDTA, broth microdilution, 37° C., 20 hours
[12] = ATCC49619, broth microdilution, 37° C., 20 hours

SMILES: Cn1ncc2nc(Nc3ccc(Cl)c(Cl)c3)[nH]c(=O)c21 [Compound 9, 5-((3,4-Dichlorophenyl)amino)-1-methyl-1H-pyrazolo[4,3-d]pyrimidin-7(6H)-one]
MIC [1, 8]: > 64 µg/mL
MIC [2, 8]: > 64 µg/mL
MIC [3, 9]: > 64 µg/mL
MIC [4, 8]: > 64 µg/mL
MIC [5, 10]: > 64 µg/mL
MIC [6, 11]: > 64 µg/mL
MIC E. coli ATCC 25922 + 4 mM EDTA [6, 8]: >64 µg/mL
MIC [7, 12]: > 64 µg/mL

SMILES: O=c1[nH]c(NCc2ccc(Cl)c(Cl)c2)nc2cnn(CCO)c12 [Compound 76, 5-((3,4-dichlorobenzyl)amino)-1-(2-hydroxyethyl)-1H-pyrazolo[4,3-d]pyrimidin-7(6H)-one]
MIC [1, 8]: 4 µg/mL (≈ 11.3 µM)
MIC [2, 8]: 4 µg/mL (≈ 11.3 µM)
MIC [3, 9]: 4 µg/mL (≈ 11.3 µM)
MIC [4, 8]: 2 µg/mL (≈ 5.65 µM)
MIC [5, 10]: 2 µg/mL (≈ 5.65 µM)
MIC [6, 11]: > 64 µg/mL
MIC E. coli ATCC 25922 + 4 mM EDTA [6, 8]: >64 µg/mL
MIC [7, 12]: 4 µg/mL (≈ 11.3 µM)

SMILES: O=c1[nH]c(NCc2ccc(Cl)c(Cl)c2)nc2cnn(C3CCNC3)c12 (stereo not drawn) [Compound 216, 5-((3,4-dichlorobenzyl)amino)-1-(pyrrolidin-3-yl)-1H-pyrazolo[4,3-d]pyrimidin-7(6H)-one TFA salt]
MIC ([1]; 20 h): 16 µg/mL
MIC ([2]; 20 h): 16 µg/mL
MIC ([3]; ATCC29212, 20 h): 16 µg/mL
MIC ([4]; 20 h): 16 µg/mL
MIC ([5]; ATCC6633, 20 h): 4 µg/mL
MIC ([6]; ATCC25922, 20 h): > 64 µg/mL
MIC E. coli ATCC 25922 + 4 mM EDTA [6, 8]: >64 µg/mL
MIC ([7]; ATCC49619, 20 h): 4 µg/mL

SMILES: CN(C)C1CCN(CCn2ncc3nc(NCc4ccc(Cl)c(Cl)c4)[nH]c(=O)c32)CC1.Cl.Cl [Compound 67, 5-((3,4-Dichlorobenzyl)amino)-1-(2-(4-(dimethylamino)piperidin-1-yl)ethyl)-1H-pyrazolo[4,3-d]pyrimidin-7(6H)-one dihydrochloride]
MIC [1, 8]: 32 µg/mL
MIC [2, 8]: 32 µg/mL
MIC [3, 9]: 16 µg/mL
MIC [4, 8]: 16 µg/mL
MIC [5, 10]: 8 µg/mL
MIC [6, 11]: > 64 µg/mL
MIC E. coli ATCC 25922 + 4 mM EDTA [6, 8]: >64 µg/mL
MIC [7, 12]: 8 µg/mL

The next lines start with the values.

MIC [1, 8]: 64 µg/mL
MIC [2, 8]: 32 µg/mL
MIC [3, 9]: 64 µg/mL
MIC [4, 8]: 32 µg/mL
MIC [5, 10]: 4 µg/mL
MIC [6, 11]: > 64 µg/mL
MIC E. coli ATCC 25922 + 4 mM EDTA [6, 8]: >64 µg/mL
MIC [7, 12]: 8 µg/mL
SMILES: Cl.O=c1[nH]c(NCc2ccc(Cl)c(Cl)c2)nc2cnn(CC3CCNC3)c12 (stereo not drawn) [Compound 155, 5-((3,4-dichlorobenzyl)amino)-1-(pyrrolidin-3-ylmethyl)-1H-pyrazolo[4,3-d]pyrimidin-7(6H)-one hydrochloride]

MIC [1, 8]: 2 µg/mL (≈ 4.71 µM)
MIC [2, 8]: 4 µg/mL (≈ 9.43 µM)
MIC [3, 9]: 4 µg/mL (≈ 9.43 µM)
MIC [4, 8]: 2 µg/mL (≈ 4.71 µM)
MIC [5, 10]: 1 µg/mL (≈ 2.36 µM)
MIC [6, 11]: > 64 µg/mL
MIC E. coli ATCC 25922 + 4 mM EDTA [6, 8]: >64 µg/mL
MIC [7, 12]: 8 µg/mL (≈ 18.9 µM)
SMILES: CCOC(=O)CCCn1ncc2nc(NCc3ccc(Cl)c(Cl)c3)[nH]c(=O)c21 [Compound 205, ethyl 4-(5-((3,4-dichlorobenzyl)amino)-7-oxo-6,7-dihydro-1H-pyrazolo[4,3-d]pyrimidin-1-yl)butanoate]

MIC [1, 8]: 16 µg/mL
MIC [2, 8]: 16 µg/mL
MIC [3, 9]: 16 µg/mL
MIC [4, 8]: 8 µg/mL
MIC [5, 10]: 4 µg/mL
MIC [6, 11]: > 64 µg/mL
MIC E. coli ATCC 25922 + 4 mM EDTA [6, 8]: 64 µg/mL
MIC [7, 12]: 8 µg/mL
SMILES: CN1CCCC(c2nc(Cn3ncc4nc(NCc5ccc(Cl)c(Cl)c5)[nH]c(=O)c43)co2)C1.Cl (stereo not drawn) [Compound 172, 5-((3,4-dichlorobenzyl)amino)-1-((2-(1-methylpiperidin-3-yl)oxazol-4-yl)methyl)-1H-pyrazolo[4,3-d]pyrimidin-7(6H)-one hydrochloride]

MIC [1, 8]: > 64 µg/mL
MIC [2, 8]: > 64 µg/mL
MIC [3, 9]: > 64 µg/mL
MIC [4, 8]: > 64 µg/mL
MIC [5, 10]: > 64 µg/mL
MIC [6, 11]: > 64 µg/mL
MIC E. coli ATCC 25922 + 4 mM EDTA [6, 8]: >64 µg/mL
MIC [7, 12]: > 64 µg/mL
SMILES: O=C(NCCn1ncc2nc(NCc3ccc(Cl)c(Cl)c3)[nH]c(=O)c21)c1cnoc1 [Compound 86, N-(2-(5-((3,4-dichlorobenzyl)amino)-7-oxo-6,7-dihydro-1H-pyrazolo[4,3-d]pyrimidin-1-yl)ethyl)isoxazole-4-carboxamide]

MIC ([1]; S. aureus NRS 384, broth microdilution, 37° C., 20 hours): 4 µg/mL (≈ 10.4 µM)
MIC [2, 8]: 8 µg/mL (≈ 20.9 µM)
MIC [3, 9]: 8 µg/mL (≈ 20.9 µM)
MIC [4, 8]: 4 µg/mL (≈ 10.4 µM)
MIC [5, 10]: 8 µg/mL (≈ 20.9 µM)
MIC [6, 11]: > 64 µg/mL
MIC E. coli ATCC 25922 + 4 mM EDTA [6, 8]: >64 µg/mL
MIC [7, 12]: 4 µg/mL (≈ 10.4 µM)
SMILES: O=c1[nH]c(NCc2ccc(F)c(F)c2)nc2c(F)nn(CCOCCO)c12 [Compound 301, 5-((3,4-difluorobenzyl)amino)-3-fluoro-1-(2-(2-hydroxyethoxy)ethyl)-1H-pyrazolo[4,3-d]pyrimidin-7(6H)-one]
